Patent publication US8710089B2, “Triazole derivatives as ghrelin analogue ligands of growth hormone secretagogue receptors” (Zentaris GmbH, priority 2005, dated 2014)

Key:
[1] = tested on: young-adult male Sprague-Dawley rats; assay: Feeding behavior (food intake) of young-adult male rats; type: in vivo, rat (Sprague-Dawley)
Description: V) Assaying the Feeding Behavior (Food Intake) of Young-Adult Male Rats
The impact of compounds of the invention being GHS receptor analogue ligands on the feeding behaviour, i.e. food intake, of young-adult male rats was assayed.
In principle, assaying the feeding behavior (food intake) of young-adult male rats was performed according to Torsello et al. (Eur. J. Pharmacol. 1998, 360: 123-129).
For the assay, young-adult male Sprague-Dawley rats (Charles River, Calco, Italy), weighing 200-250 g, were used.
Rats had 1 week of acclimation in individual home cages, and animal room conditions (22±2° C., 65% humidity, artificial light from 08.00 to 20.00 h). The following week, they were daily trained to mimic the experimental procedure. Rats maintained free access to dry pellets and tap water throughout the whole experimental period. At the end of training, rats were administered (around 10.00-11.00 a.m.) subcutaneously with the compounds to be tested (160 μg/kg body weight) and/or hexarelin (80 μg/kg body weight) and/or solvent [DMSO (0.4% of total volume), distilled water (4% of total volume), brought to the final volume with physiological saline].
Hexarelin was used to study the effects of the compounds to be tested on stimulated feeding behavior. Immediately after the injections, the animals were returned to their home cages, which contained a known amount of standard rat chow and ad libitum water. Every hour for the following 6 hours, the remaining food was carefully collected and weighed to the nearest 0.1 g. Food intake was normalized for the body weight of the rats and expressed as grams of food eaten per 100 g body weight of rats.
In the following table 4 results obtained for selected compounds of the invention are presented.

human GHS-R 1a = biological target: T1, human GHS-R 1a (Homo sapiens, UniProt Q92847); assay: GHS-R 1a receptor-ligand binding assay (membrane preparations from transfected LLC PK-1 cells); conditions: displacement of 125I-His9-ghrelin (60 pM); membranes of LLC PK-1 cells transfected with human GHS-R 1a; mean of at least two independent experiments in triplicates
T1 construct: expressed in transfected cells; host or cells: LLC PK-1 porcine renal epithelial cells (ECACC No. 86121112), isolated plasma membranes
T1 sequence (Q92847 whole entry): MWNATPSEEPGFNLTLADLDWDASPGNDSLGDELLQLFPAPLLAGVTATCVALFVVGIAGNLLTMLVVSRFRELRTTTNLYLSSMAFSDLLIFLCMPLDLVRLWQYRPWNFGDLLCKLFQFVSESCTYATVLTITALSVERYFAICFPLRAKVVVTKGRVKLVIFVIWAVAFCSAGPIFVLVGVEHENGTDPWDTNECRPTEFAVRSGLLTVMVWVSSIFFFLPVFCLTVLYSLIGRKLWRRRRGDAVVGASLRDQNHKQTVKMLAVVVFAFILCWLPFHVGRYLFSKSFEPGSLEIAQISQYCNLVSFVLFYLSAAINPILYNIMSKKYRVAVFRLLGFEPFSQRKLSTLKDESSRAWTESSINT
Outline: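 Membranes from LLC PK-1 cells expressing human GHS-R 1a incubated 60 min at 25 °C in 50 mM Tris pH 7.3, 5 mM MgCl2, 2.5 mM EDTA, bacitracin with 60 pM 125I-ghrelin and competitor; nonspecific binding with 10^-6 M ghrelin; filtration read-out.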

[2] = tested on: GH concentration in the plasma of male rat pups; assay: In vivo GH concentration in the plasma of male rat pups; set-up: species or system rat (Sprague-Dawley); conditions: rat pup plasma, killed 15 min later
Description: IV) Assaying In Vivo GH Concentration in the Plasma of Male Rat Pups
GH plasma concentrations of male rat pubs were assayed to characterize the modulation effect (antagonistic or agonistic) of the compounds of the invention being GHS receptor analogue ligands.
In principle, assaying in vivo GH concentration in rat plasma was performed according to Torsello et al. (Eur. J. Pharmacol. 1998, 360: 123-129).
Male Sprague-Dawley rat pups (Charles River, Calco, Italy) were separated on postnatal day seven from their mothers and randomly redistributed to the dams, so that each one nurtured ten to twelve pups. On postnatal day ten, the pups were again separated from their mothers.
The compounds to be tested were dissolved in solvent [DMSO (0.4% of total volume), distilled water (4% of total volume), brought to the final volume with physiological saline].
One hour after separation from their mothers, the pups were given isovolumetric amounts of the compounds to be tested (160 μg/kg body weight s.c.) at time −10 min and then administered with hexarelin (80 μg/kg body weight s.c.) or solvent at time 0 min before being killed 15 min later by decapitation. Trunk blood was collected, immediately centrifuged and plasma samples were stored at −20° C. until assayed for the determination of GH concentrations.
Plasma GH concentrations were measured using a rat growth hormone enzyme immunoassay kit (SPIbio, France, cat. no. 589601) according to the manufacturer's instructions. Values are expressed in terms of NIDDK rat-GH-RP2 standard (potency 2 IU/mg) as ng/mL of plasma
The limit of detection calculated as the concentration producing 15% displacement of initial tracer was 0.5 ng/ml; intra-assay and inter-assay coefficient of variation are 4% (n=24) and 14% (n=9).
In the following table 3 results obtained for selected compounds of the invention are presented.

[3] = compound 160 μg/kg s.c. + hexarelin 80 μg/kg s.c.
[4] = compound alone, 160 μg/kg body weight s.c.
[5] = compound 160 μg/kg s.c. at -10 min + hexarelin 80 μg/kg s.c. at 0 min
[6] = compound alone 160 μg/kg body weight s.c. at -10 min, solvent at 0 min

Structure (SMILES)	IC50 (human GHS-R 1a) [nM]	Cumulative food intake (after 2 hours) [1, 3] [g food/100 g body weight]	Cumulative food intake (after 6 hours) [1, 3] [g food/100 g body weight]	Cumulative food intake (after 2 hours) [1, 4] [g food/100 g body weight]	Cumulative food intake (after 6 hours) [1, 4] [g food/100 g body weight]	GH concentration [2, 5] [ng/mL]	GH concentration [2, 6] [ng/mL]
CC(C)(N)C(=O)N[C@H](Cc1c[nH]c2ccccc12)c1nnc(CCCc2c[nH]c3ccccc23)n1Cc1ccccc1 [compound 9, (R)—N-(1-(5-(3-(1H-indol-3-yl)propyl)-4-benzyl-4H-1,2,4-triazol-3-yl)-2-(1H-indol-3-yl)ethyl)-2-amino-2-methylpropanamide]	46	0.0104 ± 0.0032	0.0231 ± 0.0032	0.01 ± 0	0.01 ± 0	183.562 ± 16.729	13.016 ± 1.960
COc1ccc(Cn2c(CCc3ccccc3)nnc2[C@@H](Cc2c[nH]c3ccccc23)NC(=O)CN)cc1 [compound 50, (R)—N-(1-(4-(4-methoxybenzyl)-5-phenethyl-4H-1,2,4-triazol-3-yl)-2-(1H-indol-3-yl)ethyl)-2-aminoacetamide]		0.003 ± 0.002	0.017 ± 0.001	0.012 ± 0.008	0.039 ± 0.011	164.459 ± 4.443	9.852 ± 1.040

Second part, led by results:

IC50 (human GHS-R 1a) [nM]	Structure (SMILES)	Cumulative food intake (after 2 hours) [1, 3] [g food/100 g body weight]	Cumulative food intake (after 6 hours) [1, 3] [g food/100 g body weight]	Cumulative food intake (after 2 hours) [1, 4] [g food/100 g body weight]	Cumulative food intake (after 6 hours) [1, 4] [g food/100 g body weight]	GH concentration [2, 5] [ng/mL]	GH concentration [2, 6] [ng/mL]
6	COc1ccc(Cn2c(CCc3c[nH]c4ccccc34)nnc2[C@@H](Cc2c[nH]c3ccccc23)NC(=O)C(C)(C)N)cc1 [compound 12, (R)—N-(1-(5-(2-(1H-indol-3-yl)ethyl)-4-(4-methoxybenzyl)-4H-1,2,4-triazol-3-yl)-2-(1H-indol-3-yl)ethyl)-2-amino-2-methylpropanamide]	0.13 ± 0.07	0.48 ± 0.22	0.034 ± 0.011	0.06 ± 0.019	200.0 ± 19.7	4.0 ± 0.12
14	COc1ccc(Cn2c(CCc3ccccc3)nnc2[C@@H](Cc2c[nH]c3ccccc23)NC(=O)C(C)(C)N)cc1 [compound 20, (R)—N-(1-(4-(4-methoxybenzyl)-5-phenethyl-4H-1,2,4-triazol-3-yl)-2-(1H-indol-3-yl)ethyl)-2-amino-2-methylpropanamide]	0.53 ± 0.21	0.63 ± 0.19	0.01	0.2 ± 0.19	220.51 ± 15.52	5.27 ± 0.59
0.5	COc1ccc(Cn2c(CCc3c[nH]c4ccccc34)nnc2[C@@H](Cc2c[nH]c3ccccc23)NC(=O)C2CCNCC2)c(OC)c1 [compound 31, (R)—N-(1-(5-(2-(1H-indol-3-yl)ethyl)-4-(2,4-dimethoxybenzyl)-4H-1,2,4-triazol-3-yl)-2-(1H-indol-3-yl)ethyl)piperidine-4-carboxamide]					103.528 ± 14.094	119.937 ± 33.054
